Results: patent US12120996B2, “Induction method for improving yield and fertility of 2n pollen in Camellia oleifera” (Central South University of Forestry and Technology, priority 2024, dated 2024)

What was measured:
[1] = tested on: Camellia oleifera 'Huaxin' 2n pollen; experiment: 2n pollen fertility rate (aceto-carmine staining) after precursor application and 45° C. high-temperature treatment of flower branches; format: in vivo; conditions: for k1 (K1/4, mean 2n pollen fertility rate at level 1): level 1: DMTU 5 mg/L, mannitol 0.1 g/L, ascorbic acid 0.5 mg/L, brassinolide 2.0 mg/L, sucrose 5 g/L; for k2 (K2/4, mean 2n pollen fertility rate at level 2): level 2: DMTU 10 mg/L, ascorbic acid 1.0 mg/L, sucrose 10 g/L; for k3 (K3/4, mean 2n pollen fertility rate at level 3): level 3: DMTU 15 mg/L, mannitol 1.0 g/L, brassinolide 6.0 mg/L, sucrose 15 g/L; for k4 (K4/4, mean 2n pollen fertility rate at level 4): level 4: DMTU 20 mg/L, mannitol 2.0 g/L, ascorbic acid 2.0 mg/L, brassinolide 8.0 mg/L, sucrose 30 g/L; for 2n pollen fertility rate (%): 45° C.
Experimental: (§1) After the high-temperature treatment was released, Camellia oleifera grew naturally until anthers were pollinated. Pollen of each treatment was collected, and a temporary smear of the pollen was made by an aceto-carmine staining method and then photographed by an OlympusDP70 optical microscope; and a diameter of pollen in a temporary smear of each treatment was measured by Image J software, and a yield and a fertility rate of 2n pollen were counted.
(§2) Pollen stained red by aceto-carmine was counted as fertile pollen, and pollen not stained red by aceto-carmine was counted as infertile pollen (as shown in FIG. 3).
(§3) An occurrence frequency of 2n pollen was a ratio of an amount of 2n pollen to a total amount of pollen observed, and a fertility rate of 2n pollen was a ratio of an amount of fertile 2n pollen to a total amount of 2n pollen observed. […] When no high-temperature treatment is applied, an occurrence frequency of 2n pollen is 0.9%, and a fertility rate is 100%. • 2. […] Treatment conditions for 2n pollen in Camellia oleifera in the present disclosure: a leptotene stage to a pachytene stage of pollen mother cells, a style length: less than 2.57 mm, an induction temperature: 43° C. to 49° C., and an induction time: 3 h to 6 h.
(§4) Flower branches with a style length developing to 1.97 mm<L≤2.27 mm and pollen mother cells at a leptotene stage to a pachytene stage were selected as target flower branches, and DMTU solutions with different concentrations were applied to the target flower branches, respectively; and a flower branch not treated with a DMTU solution was adopted as a control.
(§5) The concentrations of the DMTU solutions were 1 mg/L, 5 mg/L, 10 mg/L, 15 mg/L, 20 mg/L, and 25 mg/L, respectively. Preparation method of a DMTU solution: DMTU was first dissolved with an appropriate amount of alcohol, and then water was added to a required concentration.
(§6) The above DMTU solutions with different concentrations each were sprayed on a flower branch, where a DMTU solution was evenly sprayed on a flower branch by a sprayer until there were condensed water droplets flowing down from leaves or flower buds; and each treatment was numbered and recorded (as shown in Table 3).
(§7) After each DMTU solution was applied, in order to avoid rapid evaporation of a solution on a leaf surface due to a high-temperature treatment, the whole flower branch was wrapped with a plastic film, and then the non-ex vivo tree branch bud heating device in the authorized patent (patent ZL200610113448.X) was immediately used to apply a 45° C. high-temperature treatment to each target flower branch for 4 h, namely, a high-temperature doubling treatment. A doubling treatment method was the same as the doubling treatment method in step 1.2 of Example 1.
(§8) After a high-temperature treatment was conducted for 4 h, a heating bag and a plastic film were removed to release the high-temperature treatment, and Camellia oleifera was allowed to grow naturally until anthers were pollinated. Pollen of each treatment was collected, and a temporary smear of the pollen was made by an aceto-carmine staining method and then photographed by an Olympus DP70 optical microscope; and a diameter of pollen was measured by Image J software, and an occurrence frequency and a fertility rate of 2n pollen were counted.
(§9) The above reagents were applied through spraying on a flower branch and injection into a flower bud. The spraying on a flower branch was as follows: a precursor solution was evenly sprayed on the flower branch by a sprayer until there were condensed water droplets flowing down from leaves or flower buds. The injection into a flower bud was as follows: a precursor solution was injected into the flower bud by a 5 mL syringe (0.5×20 mm injection needle) through a scale gap at a top of the flower bud until there were water droplets overflowing a surface of the flower bud. […]

[2] = tested on: Camellia oleifera 'Huaxin' 2n pollen; experiment: 2n pollen yield (occurrence frequency) after precursor application and 45° C. high-temperature treatment of flower branches; format: in vivo
Experimental: as §1, §2, §3, §4, §5, §6, §7, §8, §9

[3] = mannitol 0.5 g/L, brassinolide 4.0 mg/L, in %
[4] = Injection into a flower bud, DMTU 10 mg/L, mannitol 0.5 g/L, ascorbic acid 1.5 mg/L, brassinolide 4.0 mg/L, 4 h (Example 2B)
[5] = Spraying on a flower branch, DMTU 10 mg/L, mannitol 0.5 g/L, ascorbic acid 1.5 mg/L, brassinolide 4.0 mg/L, 4 h (Example 2B)
[6] = DMTU solution 1 mg/L sprayed on flower branch, 4 h
[7] = DMTU solution 5 mg/L sprayed on flower branch, 4 h
[8] = DMTU solution 10 mg/L sprayed on flower branch, 4 h (Example 2A)
[9] = DMTU solution 15 mg/L sprayed on flower branch, 4 h
[10] = DMTU solution 20 mg/L sprayed on flower branch, 4 h
[11] = DMTU solution 25 mg/L sprayed on flower branch, 4 h

SMILES | k1 (K1/4, mean 2n pollen fertility rate at level 1) ([1]; in %) | k2 (K2/4, mean 2n pollen fertility rate at level 2) [1, 3] | k3 (K3/4, mean 2n pollen fertility rate at level 3) ([1]; ascorbic acid 1.5 mg/L, in %) | k4 (K4/4, mean 2n pollen fertility rate at level 4) ([1]; in %) | 2n pollen yield (%) [2, 4] [%] | 2n pollen yield (%) [2, 5] [%] | 2n pollen fertility rate (%) [1, 4] [%] | 2n pollen fertility rate (%) [1, 5] [%] | other results
OC[C@H]1O[C@@](CO)(O[C@H]2O[C@H](CO)[C@@H](O)[C@H](O)[C@H]2O)[C@@H](O)[C@@H]1O [Sucrose, sucrose] | 80.87 | 80.95 | 82.91 | 80.44 | – | – | – | – | –
OC[C@@H](O)[C@@H](O)[C@H](O)[C@H](O)CO [Mannitol, mannitol] | 81.64 | 82.95 | 80.98 | 79.59 | 9.68 | 9.81 | 77.89 | 75.94 | –
CC(C)[C@H](C)[C@@H](O)[C@H](O)[C@@H](C)[C@H]1CC[C@H]2[C@@H]3COC(=O)[C@H]4C[C@H](O)[C@H](O)C[C@]4(C)[C@H]3CC[C@]12C [Brassinolide, brassinolide] | 79.88 | 82.98 | 81.95 | 80.36 | 11.03 | 10.83 | 84.13 | 82.58 | –
CNC(=S)NC [DMTU, N,N′-Dimethylthiourea] | 78.23 | 87.54 | 81.12 | 78.28 | 12.17 | 11.52 | 90.14 | 86.97 | 2n pollen yield (%) [2, 6]: 9.17%; 2n pollen yield (%) [2, 7]: 9.81%; 2n pollen yield (%) [2, 8]: 11.52%; 2n pollen yield (%) [2, 9]: 10.83%; 2n pollen yield (%) [2, 10]: 10.15%; 2n pollen yield (%) [2, 11]: 9.05%; 2n pollen yields and fertility rates compared with the control ([1]; 5 mg/L, 10 mg/L, 15 mg/L and 20 mg/L DMTU solutions sprayed on flower branches): significantly improved; 2n pollen fertility rate (%) [1, 6]: 64.25%; 2n pollen fertility rate (%) [1, 7]: 75.94%; 2n pollen fertility rate (%) [1, 8]: 86.23%; 2n pollen fertility rate (%) [1, 9]: 82.46%; 2n pollen fertility rate (%) [1, 10]: 78.61%; 2n pollen fertility rate (%) [1, 11]: 64.43%
O=C1O[C@H]([C@@H](O)CO)C(O)=C1O [Ascorbic acid, ascorbic acid] | – | – | – | – | 10.05 | 9.76 | 81.26 | 79.58 | k1 (K1/4, mean 2n pollen fertility rate at level 1) [1]: 80.47; k2 (K2/4, mean 2n pollen fertility rate at level 2) ([1]; mannitol 0.5 g/L, brassinolide 4.0 mg/L): 83.42; k3 (K3/4, mean 2n pollen fertility rate at level 3) ([1]; ascorbic acid 1.5 mg/L): 81.04; k4 (K4/4, mean 2n pollen fertility rate at level 4) [1]: 80.24
